Where “and” joins values, the source holds several entries; their conditions need not be identical. Equal values may be shown once. Read-outs that look alike come from different tables or passages of the source. Marks after values point to notes of the source that are not given here.
Key:
[1] = tested on: normal citrated PPP (platelet poor plasma); format: biochemical, ICR mice; conditions: for APTT: sample diluted in PBS pH 8.34, mouse PPP, 3 min at 37 °C, triplicates, mean ± SE
Description: (§1) Blood was drawn by Eyeball from ICR mice. The blood was separately centrifuged at 2,500×g for 10 min to obtain platelet poor plasma (PPP). For the in vitro aPTT assay, normal citrated PPP (50 μl) was incubated with sample solution (8, 6, 4, 2, 1 mg/ml, previously diluted in PBS, pH 8.34, 50 μl) and 100 μl aPTT reagent for 3 min at 37 °C. Clotting time was immediately recorded after the addition of 100 μl of 20 mM CaCl2. For the in vitro PT assay, normal citrated PPP (25 μl) was incubated with sample solution (8, 6, 4, 2, 1 mg/ml, previously diluted in PBS, pH 8.34, 25 μl) for 3 min at 37 °C. Clotting time was immediately recorded after the addition of 50 μl of PT reagent (Majdoub et al. [2009]). All coagulation assays were performed in triplicates. Heparin was used as a positive control, and PBS (pH 8.34) as model control. For ex vivo coagulation assays, samples were dissolved in saline and were intravenously injected (10 or 20 mg/kg) in ICR mice (6 animals/group). Five and 24 h after drug administration, blood was collected (drawn by eyeball), immediately centrifuged (3,000 rpm, 15 min), and the plasma was used to measure the aPTT and PT as previously described (Batista et al. [2010]).

[2] = tested on: normal citrated PPP (platelet poor plasma); assay: in vitro PT clotting assay; format: biochemical, ICR mice; conditions: sample diluted in PBS pH 8.34, mouse PPP, 3 min at 37 °C, triplicates, mean ± SE
Description: as §1

whole blood clotting = assay: Whole blood clotting time in vivo, capillary glass tube method; set-up: species or system mice; conditions: for Effect on whole blood clotting time: TNGYT 10 and 20 mg/kg, heparin 20 mg/kg, versus control group, P < 0.01; for CT (clotting time): six per group, mean ± SE, saline 273.2 s
Description: Whole blood clotting time (CT) in mice was measured by capillary glass tube method (Li et al. [2004]). Mice (18–22 g body weight) were divided into four groups (both sexes, six per group). Two groups were received intravenous injection of 20 and 10 mg/kg body weight of the purified peptide for four consecutive days. Other groups were received normal saline and 20 mg/kg body weight of heparin (the positive control), respectively. Fifteen minutes after the last administration (positive control after 2 h), blood samples were collected through the retro-orbital plexus with a glass capillary and kept on a slide to allow for clotting. Stirring the blood with a dry needle every 30 s until needle wire can provoke a fibrous protein, when is defined as clotting time.

bleeding time = assay: Bleeding time in vivo, tail cut; set-up: species or system ICR mice; conditions: for BT (bleeding time): 6 animals/group, mean ± SE, saline 315.2 s
Description: The mice (both sexes, 18–22 g) were randomly divided into four groups. The samples were intravenously injected (10 or 20 mg/kg) in ICR mice (6 animals/group) once a day in four consecutive days. Fifteen minutes after the last administration (positive control after 2 h), the mice tail was marked with a tag in the distance of 3 mm to after peak, then cut in the mark. Then the tip of the tail was immersed in saline at 37 °C. Record the time from cutting the tip of the tail to stopping bleeding, the interval was called bleeding time (Kogushi et al. [2011]). Heparin was used as positive control, and 0.9 % saline as model control.

[3] = from S. subspinipes mutilans; ref Kong et al. [2013]; cited from earlier work
Source text: The centipede contains many bioactive components, including 5-hydroxytryptamine, histamine, lipids, polysaccharides, and various enzymes (e.g. proteinases and esterases) (Knysak et al. [1998]; Gomes et al. [1983]). They have been widely used as traditional folk medicine to treat thrombotic diseases in China (Pemberton [1999]) for several hundred years. […] Wu et al. ([2009]) found centipede acidic protein (CAP) signif ...

[4] = tested on: plasma of treated mice (aPTT); assay: ex vivo aPTT assay; format: in vivo, ICR mice; conditions: for APTT: ex vivo, ICR mice, 6 animals/group, mean ± SE
Description: as §1

[5] = tested on: plasma of treated mice (PT); assay: ex vivo PT assay; format: in vivo, ICR mice; conditions: for PT: ex vivo, ICR mice, 6 animals/group, mean ± SE
Description: as §1

human FXa = target: T1, human FXa (Homo sapiens, UniProt P00742); assay: FXa inhibition assay, chromogenic substrate S-2222; format: biochemical
T1 construct: Purified human FXa; purchased HYPHEN BioMed (Neuvile sur Oise, France)
Source text: Sephadex G-50 was obtained from Pharmacia (Uppsala, Sweden). Purified human FXa and chromogenic substrate of FXa (S2222) were purchased from HYPHEN BioMed (Neuvile sur Oise, France). Mice of both sexes were from Qinglongshan animal center (Nanjing, Jiangsu Province, China). All the animal protocols were approved by the Animal Care and Use Committee at China Pharmaceutical University. All other chemicals and reagents were at analytical grade.
Chromogenic substrate method was used to measure the FXa-inhibiting activity. Inhibition was determined by FXa residual activity on the chromogenic substrate BIOPHEN CS-11 (S-2222) (22), which liberates the chromophoric group pNA (p-nitroaniline) (van Wijk and Smit [1984]). Different concentrations of the peptide (5–60 mg/ml) were incubated with FXa for 30 min at 37 °C in PBS (pH 8.34). The reaction was initiated by adding the substrate into the peptide solution (Ibrahima et al. [2001]). The absorbance at 405 nm was recorded every 0.5 min in 5 min. In A–t curve, the curve slope was considered as reaction rate (v).
Inhibition rate(%)=V0- Vi/V0×100%, V0 is the rate of PBS (pH 8.34, model control), and Vi is the rate of peptide.

T1 sequence (P00742 235-488 limits assumed): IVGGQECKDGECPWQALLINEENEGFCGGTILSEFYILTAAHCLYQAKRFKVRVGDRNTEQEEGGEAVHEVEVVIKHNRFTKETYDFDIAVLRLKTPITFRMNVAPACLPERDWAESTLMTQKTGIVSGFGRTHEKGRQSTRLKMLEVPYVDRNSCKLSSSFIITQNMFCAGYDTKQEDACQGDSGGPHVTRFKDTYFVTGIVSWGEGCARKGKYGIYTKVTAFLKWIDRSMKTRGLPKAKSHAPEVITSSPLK
T1 sequence (P00742 41-179 partner limits assumed): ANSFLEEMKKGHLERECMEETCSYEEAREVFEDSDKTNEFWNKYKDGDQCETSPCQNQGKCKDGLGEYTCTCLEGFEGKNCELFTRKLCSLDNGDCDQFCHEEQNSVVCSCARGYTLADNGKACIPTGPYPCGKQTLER

Heparin [reference compound]
APTT ([1]; in vitro, 1 mg/ml): >60.0** s
PT ([2]; 1 mg/ml): >60.0** s
Effect on whole blood clotting time (whole blood clotting): significantly prolong whole blood clotting time
CT (clotting time) (whole blood clotting; positive control 20 mg/kg, 2 h after administration, mice): 718.8 ± 60.15 s
BT (bleeding time) (bleeding time; positive control 20 mg/kg, 2 h after last administration): 804.3 ± 87.7 s

Ser-Gln-Leu (SQL) [anti-thrombotic peptide isolated from S. subspinipes mutilans]
Anti-thrombotic activity [3]: anti-thrombotic

Thr-Asn-Gly-Tyr-Thr (TNGYT)
Biological activity, natural vs synthesized peptide (aPTT and PT assays) ([1]; aPTT and PT assays, data in Table 1 of Supplementary Data): the same biological activity
Potency relative to heparin, fold lower ([1]; in vitro assay, lower than heparin): at least 8 -folded
APTT ([1]; in vitro, 1 mg/ml): 36.7 ± 1.5 s
APTT ([1]; in vitro, 2 mg/ml): 44.0 ± 2.0 s
APTT ([1]; in vitro, 4 mg/ml): 44.0 ± 1.0 s
APTT ([1]; in vitro, 8 mg/ml, 0.9 % saline control 33.3 s): 57 s and 57.0 ± 2.0 s
Action on aPTT and PT relative to heparin ([1]; in vitro, aPTT and PT, versus heparin (1 mg/ml)): lower than the positive control heparin
PT ([2]; 1 mg/ml): 14.7 ± 0.6 s
PT ([2]; 2 mg/ml): 15.3 ± 1.5 s
PT ([2]; 4 mg/ml): 17.7 ± 0.6 s
PT ([2]; 8 mg/ml, 0.9 % saline control 12.7 s): 23.3 s and 23.3 ± 1.5 s
Alteration of aPTT ex vivo ([4]; 10 or 20 mg/kg i.v., 5 and 24 h, mice): increases in the aPTT were observed
APTT ([4]; 5 h after 10 mg/kg i.v., saline 49.0 s): 59.0 ± 2.0 s
APTT ([4]; 5 h after 20 mg/kg i.v., saline 49.0 s): 65.7 ± 3.1 s
APTT ([4]; 24 h after 10 mg/kg i.v., saline 47.0 s): 49.3 ± 1.5 s
APTT ([4]; 24 h after 20 mg/kg i.v., saline 47.0 s): 51.3 ± 2.3 s
Alteration of PT ex vivo ([5]; 10 or 20 mg/kg i.v., mice): no significant alterations were observed in the PT
PT ([5]; 5 h after 10 mg/kg i.v., saline 15.7 s): 16.7 ± 0.6 s
PT ([5]; 24 h after 10 mg/kg i.v., saline 17.7 s): 18.7 ± 1.5 s
PT ([5]; 24 h after 20 mg/kg i.v., saline 17.7 s): 18.3 ± 0.6 s
CT (clotting time) (whole blood clotting; 10 mg/kg i.v., four consecutive days, 15 min after last administration, mice): 389.0 ± 35.74 s
CT (clotting time) (whole blood clotting; 20 mg/kg i.v., four consecutive days, 15 min after last administration, mice): 463.0 ± 48.8 s
Effect on whole blood clotting time (whole blood clotting): significantly prolong whole blood clotting time
Effect in prolonging the clotting time compared to heparin (whole blood clotting; same dose of 20 mg/kg, i.v., mice): about 50%
BT (bleeding time) (bleeding time; 10 mg/kg i.v. once a day, four consecutive days, 15 min after last administration): 447.5 ± 78.1 s
BT (bleeding time) (bleeding time; 20 mg/kg i.v. once a day, four consecutive days, 15 min after last administration): 549.7 ± 60.9 s
Effect on bleeding time (bleeding time; 10 and 20 mg/kg, versus model control, P < 0.01): significantly prolong the bleeding time
Risk of bleeding relative to heparin (bleeding time; equal dose 20 mg/kg, inferred from bleeding time): lower than that of heparin
Inhibition of FXa activity (human FXa; 60 mg/ml, 30 min at 37 °C, PBS pH 8.34, substrate S-2222, absorbance 405 nm): 59.75%
Inhibition rate of FXa relative to other protein/peptide FXa inhibitors (human FXa; versus Ac-AP-12, Amblyomin-X, Nymphal FXa inhibitor, AduNAP4): lower than FXa inhibitors mentioned above

From PMC3824214, “A Novel Factor Xa-Inhibiting Peptide from Centipedes Venom” (International Journal of Peptide Research and Therapeutics, 2013)
